Experimental data taken from the NIST ThermoML archive (doi:10.1021/je060107n).

Assay: mn = molality of the nth substance listed, in mol/kg
Conditions: 101 kPa, Liquid; for viscosity: Capillary tube (Ostwald / Ubbelohde) method; for speed of sound: Linear variable-path acoustic interferometer

O=[N+]([O-])[O-].O=[N+]([O-])[O-].[Mg+2] [magnesium nitrate] + O
Conditions	speed of sound, 273.15 K [m/s]	speed of sound, 278.15 K [m/s]	speed of sound, 283.15 K [m/s]	speed of sound, 288.15 K [m/s]	speed of sound, 293.15 K [m/s]	viscosity, 273.15 K [mPa·s]	viscosity, 278.15 K [mPa·s]	viscosity, 283.15 K [mPa·s]	viscosity, 288.15 K [mPa·s]	viscosity, 293.15 K [mPa·s]
m1 = 0.0145	1410.5	1434.8	1449.2	1471.7	1484.3	1.852	1.556	1.339	1.164	1.021
m1 = 0.0528	1415.6	1438.7	1458.5	1477.1	1486.7	1.874	1.58	1.357	1.18	1.038
m1 = 0.2491	1430.4	1451.6	1470.7	1487.6	1501.9	1.958	1.654	1.429	1.244	1.092
m1 = 0.3405	1443	1456.8	1475.6	1491.5	1507	–	–	–	–	–
m1 = 0.5931	–	–	–	–	–	2.122	1.805	1.564	1.367	1.209
m1 = 0.6173	1469.3	1486.9	1503.7	1517.8	1530.1	–	–	–	–	–
m1 = 0.896	1498.6	1514.8	1529	1541.2	1553.1	–	–	–	–	–
m1 = 0.9898	1510.3	1524.8	1538.8	1550.4	1561.5	2.391	2.047	1.775	1.554	1.378
m1 = 1.262	1538	1551.3	1563.1	1573.8	1582.5	2.659	2.268	1.971	1.727	1.53
m1 = 1.525	1566.3	1577.1	1587.6	1596.3	1604.4	–	–	–	–	–
m1 = 1.827	1600.5	1610.1	1617.9	1625.4	1631.9	3.232	2.765	2.4	2.098	1.859
m1 = 2.131	1632	1639.7	1645.2	1650.6	–	3.587	3.062	2.663	2.33	2.064
m1 = 2.493	1664.6	1670.1	1675.2	1677.8	–	–	–	–	–	–
m1 = 2.584	–	–	–	–	–	4.348	3.696	3.207	2.821	2.471
m1 = 2.793	1693.2	1696.9	1700.3	1703.5	–	–	–	–	–	–
m1 = 3.096	–	–	–	–	–	5.355	4.538	3.946	3.408	3.002
m1 = 3.118	1721.2	1723.7	1725.7	1727.3	–	–	–	–	–	–
m1 = 3.17	1730.6	1733	1734.2	1735.3	–	–	–	–	–	–
m1 = 3.329	–	–	–	–	–	5.964	5.056	4.336	3.754	3.308
m1 = 3.501	1752.4	1753.7	1754.9	1755.4	–	–	–	–	–	–
m1 = 3.704	–	–	–	–	–	6.966	5.857	5.02	4.345	3.807
m1 = 3.757	1771.9	1772.4	1771.9	1771.3	–	–	–	–	–	–
m1 = 4.039	–	–	–	–	–	8.21	6.897	5.864	5.051	4.432
m1 = 4.051	1791.3	1791.4	1790.4	1789.6	–	–	–	–	–	–
m1 = 4.285	1808.5	1807.3	1806.3	1804.5	–	–	–	–	–	–
m1 = 4.403	1820.2	1815.4	1813.5	1810.8	–	–	–	–	–	–
m1 = 4.728	–	–	–	–	–	11.85	9.74	8.233	7.067	6.098
m1 = 4.883	–	–	1847.2	1842.3	–	–	–	–	–	–
m1 = 4.907	–	–	–	–	–	–	–	–	7.798	6.799
